# Reference: paper PMC7402526, “An in vitro quantitative systems pharmacology approach for deconvolving mechanisms of drug-induced, multilineage cytopenias” (PLoS Computational Biology, 2020)
# What was measured:
# [1] = test system: lymphocyte progenitors (LymP); experiment: MLTA, LymP: concentration-response and QSP model fit; format: cell-based, human; settings: Homo sapiens, Lymphocyte, 144 h; for activity at 0.0002 µM: dose 0.2 nM; for activity at 0.0002 µM / activity at 0.001 µM / activity at 0.005 µM / activity at 0.025 µM / activity at 0.1 µM / activity at 0.5 µM / activity at 2.5 µM: 6 days, normalized to vehicle control, read-out: LymP normalized cell count; for activity at 0.001 µM: dose 1 nM; for activity at 0.005 µM: dose 5 nM; for activity at 0.025 µM: dose 25 nM; for activity at 0.1 µM: dose 100 nM; for activity at 0.5 µM: dose 500 nM; for activity at 2.5 µM: dose 2500 nM; for Emax: parameter from QSP model fitting, read-out: Emax_drug_LymP
# Summary of the method: (§1)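 Freeze-thawed primary human bone marrow CD34+ cells were grown in SFEM II with a multi-lineage cytokine cocktail, drug added day 0, six days at 37°C. Lineage counts came from 17-parameter flow with TruCount beads, vehicle-normalized per donor, then fitted by an Emax-based QSP model.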
# [2] = test system: granulocytes (Gran-lin); experiment: MLTA, Gran: concentration-response and QSP model fit; format: cell-based, human; settings: Homo sapiens, 144 h; for activity at 0.0002 µM: dose 0.2 nM; for activity at 0.0002 µM / activity at 0.001 µM / activity at 0.005 µM / activity at 0.025 µM / activity at 0.1 µM / activity at 0.5 µM / activity at 2.5 µM: 6 days, normalized to vehicle control, read-out: Gran normalized cell count; for activity at 0.001 µM: dose 1 nM; for activity at 0.005 µM: dose 5 nM; for activity at 0.025 µM: dose 25 nM; for activity at 0.1 µM: dose 100 nM; for activity at 0.5 µM: dose 500 nM; for activity at 2.5 µM: dose 2500 nM; for Emax: parameter from QSP model fitting, read-out: Emax_drug_Gran
# Summary of the method: (§2)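 Six-day flow cytometry counts, bead-normalized and expressed relative to the mean of six vehicle wells, underlie each value. Cells were primary human bone marrow CD34+ cells cultured in SFEM II with cytokines promoting multi-lineage differentiation and self-renewal.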
# [3] = test system: B cells (B-lin); experiment: MLTA, B-lin: concentration-response and QSP model fit; format: cell-based, human; settings: Homo sapiens, B-cell, 144 h; for activity at 0.0002 µM: dose 0.2 nM; for activity at 0.0002 µM / activity at 0.001 µM / activity at 0.005 µM / activity at 0.025 µM / activity at 0.1 µM / activity at 0.5 µM / activity at 2.5 µM: 6 days, normalized to vehicle control, read-out: B-lin normalized cell count; for activity at 0.001 µM: dose 1 nM; for activity at 0.005 µM: dose 5 nM; for activity at 0.025 µM: dose 25 nM; for activity at 0.1 µM: dose 100 nM; for activity at 0.5 µM: dose 500 nM; for activity at 2.5 µM: dose 2500 nM; for Emax: parameter from QSP model fitting, read-out: Emax_drug_B
# Summary of the method: as §1
# [4] = test system: granulocyte-macrophage progenitor (GMPs); experiment: MLTA, GMPs: concentration-response and QSP model fit; format: cell-based, human; settings: Homo sapiens, 144 h; for activity at 0.0002 µM: dose 0.2 nM; for activity at 0.0002 µM / activity at 0.001 µM / activity at 0.005 µM / activity at 0.025 µM / activity at 0.1 µM / activity at 0.5 µM / activity at 2.5 µM: 6 days, normalized to vehicle control, read-out: GMPs normalized cell count; for activity at 0.001 µM: dose 1 nM; for activity at 0.005 µM: dose 5 nM; for activity at 0.025 µM: dose 25 nM; for activity at 0.1 µM: dose 100 nM; for activity at 0.5 µM: dose 500 nM; for activity at 2.5 µM: dose 2500 nM
# Summary of the method: as §1
# [5] = test system: total dead cells (totalDeadCells); experiment: MLTA, total dead cells concentration-response; format: cell-based; settings: Homo sapiens, 144 h, 6 days, normalized to vehicle control, read-out: total_dead normalized cell count; for activity at 0.0002 µM: dose 0.2 nM; for activity at 0.001 µM: dose 1 nM; for activity at 0.005 µM: dose 5 nM; for activity at 0.025 µM: dose 25 nM; for activity at 0.1 µM: dose 100 nM; for activity at 0.5 µM: dose 500 nM; for activity at 2.5 µM: dose 2500 nM
# Summary of the method: (§3)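 Freeze-thawed primary human bone marrow CD34+ cells in SFEM II with cytokine cocktail, drug added day 0, 6 days at 37°C, 5% CO2. Live/dead counts by 17-parameter flow cytometry with DAPI exclusion, bead-normalized, volume-corrected to cells/mL. Normalized per donor to mean of six vehicle wells; 2–7 donors pooled.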
# [6] = test system: monocytes (monocyte-lin); experiment: MLTA, Mono: concentration-response and QSP model fit; format: cell-based, human; settings: Homo sapiens, Monocyte, 144 h; for activity at 0.0002 µM: dose 0.2 nM; for activity at 0.0002 µM / activity at 0.001 µM / activity at 0.005 µM / activity at 0.025 µM / activity at 0.1 µM / activity at 0.5 µM / activity at 2.5 µM: 6 days, normalized to vehicle control, read-out: Mon normalized cell count; for activity at 0.001 µM: dose 1 nM; for activity at 0.005 µM: dose 5 nM; for activity at 0.025 µM: dose 25 nM; for activity at 0.1 µM: dose 100 nM; for activity at 0.5 µM: dose 500 nM; for activity at 2.5 µM: dose 2500 nM; for Emax: parameter from QSP model fitting, read-out: Emax_drug_Mono
# Summary of the method: as §2
# [7] = test system: monocyte progenitors (monocyte prog); experiment: MLTA, MonoP: concentration-response and QSP model fit; format: cell-based, human; settings: Homo sapiens, Monocyte, 144 h; for activity at 0.0002 µM: dose 0.2 nM; for activity at 0.0002 µM / activity at 0.001 µM / activity at 0.005 µM / activity at 0.025 µM / activity at 0.1 µM / activity at 0.5 µM / activity at 2.5 µM: 6 days, normalized to vehicle control, read-out: MonoPs normalized cell count; for activity at 0.001 µM: dose 1 nM; for activity at 0.005 µM: dose 5 nM; for activity at 0.025 µM: dose 25 nM; for activity at 0.1 µM: dose 100 nM; for activity at 0.5 µM: dose 500 nM; for activity at 2.5 µM: dose 2500 nM; for Emax: parameter from QSP model fitting, read-out: Emax_drug_MonoP
# Summary of the method: as §2
# [8] = test system: total viable cells (totalViableCells); experiment: MLTA, total live cells concentration-response; format: cell-based; settings: Homo sapiens, 144 h, 6 days, normalized to vehicle control, read-out: total_live normalized cell count; for viability at 0.0002 µM: dose 0.2 nM; for viability at 0.001 µM: dose 1 nM; for viability at 0.005 µM: dose 5 nM; for viability at 0.025 µM: dose 25 nM; for viability at 0.1 µM: dose 100 nM; for viability at 0.5 µM: dose 500 nM; for viability at 2.5 µM: dose 2500 nM
# Summary of the method: as §3
# [9] = QSP model fit of 6-day MLTA data
structure (smiles),measurement,setting,value
CCc1cnn2c(NCc3ccc[n+]([O-])c3)cc(N3CCCC[C@H]3CCO)nc12 [dinaciclib],activity at 0.0002 µM,[1],89.4%
same,activity at 0.001 µM,[1],105%
same,activity at 0.005 µM,[1],99.3%
same,activity at 0.025 µM,[1],38.3%
same,activity at 0.1 µM,[1],3.05%
same,activity at 0.5 µM,[1],7.81%
same,activity at 2.5 µM,[1],2.53%
same,Emax,[1],115%
same,activity at 0.0002 µM,[2],96.8%
same,activity at 0.001 µM,[2],120%
same,activity at 0.005 µM,[2],121%
same,activity at 0.025 µM,[2],32.8%
same,activity at 0.1 µM,[2],0.0467%
same,activity at 0.5 µM,[2],0.0554%
same,activity at 2.5 µM,[2],0.0385%
same,Emax,[2],201%
same,activity at 0.0002 µM,[3],81.8%
same,activity at 0.001 µM,[3],90.4%
same,activity at 0.005 µM,[3],90.4%
same,activity at 0.025 µM,[3],11.7%
same,activity at 0.1 µM,[3],0.127%
same,activity at 0.5 µM,[3],0.514%
same,activity at 2.5 µM,[3],0.106%
same,Emax,[3],77.4%
same,activity at 0.0002 µM,[4],87%
same,activity at 0.001 µM,[4],111%
same,activity at 0.005 µM,[4],87.6%
same,activity at 0.025 µM,[4],40.3%
same,activity at 0.1 µM,[4],0.755%
same,activity at 0.5 µM,[4],1.71%
same,activity at 2.5 µM,[4],0.744%
same,activity at 0.0002 µM,[5],108%
same,activity at 0.001 µM,[5],106%
same,activity at 0.005 µM,[5],78.9%
same,activity at 0.025 µM,[5],34.8%
same,activity at 0.1 µM,[5],38.7%
same,activity at 0.5 µM,[5],34.1%
same,activity at 2.5 µM,[5],39.6%
same,activity at 0.0002 µM,[6],90.7%
same,activity at 0.001 µM,[6],106%
same,activity at 0.005 µM,[6],69.5%
same,activity at 0.025 µM,[6],8.55%
same,activity at 0.1 µM,[6],0.496%
same,activity at 0.5 µM,[6],0.834%
same,activity at 2.5 µM,[6],0.535%
same,Emax,[6],48.2%
same,activity at 0.0002 µM,[7],96.5%
same,activity at 0.001 µM,[7],106%
same,activity at 0.005 µM,[7],125%
same,activity at 0.025 µM,[7],61.8%
same,activity at 0.1 µM,[7],0.141%
same,activity at 0.5 µM,[7],0.19%
same,activity at 2.5 µM,[7],0.231%
same,Emax,[7],0.04%
same,viability at 0.0002 µM,[8],95.4%
same,viability at 0.001 µM,[8],107%
same,viability at 0.005 µM,[8],92.4%
same,viability at 0.025 µM,[8],26.1%
same,viability at 0.1 µM,[8],0.282%
same,viability at 0.5 µM,[8],0.4%
same,viability at 2.5 µM,[8],0.255%
CS(=O)(=O)N1CCN(Cc2cc3nc(-c4cccc5[nH]ncc45)nc(N4CCOCC4)c3s2)CC1 [pictilisib],activity at 0.0002 µM,[1],93.3%
same,activity at 0.001 µM,[1],105%
same,activity at 0.005 µM,[1],86.9%
same,activity at 0.025 µM,[1],77.7%
same,activity at 0.1 µM,[1],49.6%
same,activity at 0.5 µM,[1],46.4%
same,activity at 2.5 µM,[1],19.2%
same,Emax,[1],0.032%
same,EC50,[2]; [9],0.167 nM
same,activity at 0.0002 µM,[2],99.2%
same,activity at 0.001 µM,[2],100%
same,activity at 0.005 µM,[2],90.3%
same,activity at 0.025 µM,[2],78.6%
same,activity at 0.1 µM,[2],51.4%
same,activity at 0.5 µM,[2],27.9%
same,activity at 2.5 µM,[2],9.84%
same,Emax,[2],23.2%
same,EC50,[3]; [9],91.3 nM
same,activity at 0.0002 µM,[3],93.8%
same,activity at 0.001 µM,[3],107%
same,activity at 0.005 µM,[3],81.5%
same,activity at 0.025 µM,[3],65.5%
same,activity at 0.1 µM,[3],37.5%
same,activity at 0.5 µM,[3],16.2%
same,activity at 2.5 µM,[3],6.19%
same,Emax,[3],51.4%
same,EC50,[4]; [9],1.41 nM
same,activity at 0.0002 µM,[4],95.6%
same,activity at 0.001 µM,[4],97.9%
same,activity at 0.005 µM,[4],92.7%
same,activity at 0.025 µM,[4],75.4%
same,activity at 0.1 µM,[4],62.5%
same,activity at 0.5 µM,[4],39.5%
same,activity at 2.5 µM,[4],22.5%
same,activity at 0.0002 µM,[5],105%
same,activity at 0.001 µM,[5],110%
same,activity at 0.005 µM,[5],91.5%
same,activity at 0.025 µM,[5],93.1%
same,activity at 0.1 µM,[5],55.3%
same,activity at 0.5 µM,[5],40.1%
same,activity at 2.5 µM,[5],34.3%
same,EC50,[6]; [9],1020 nM
same,activity at 0.0002 µM,[6],92.5%
same,activity at 0.001 µM,[6],90.6%
same,activity at 0.005 µM,[6],79.5%
same,activity at 0.025 µM,[6],77.6%
same,activity at 0.1 µM,[6],61.1%
same,activity at 0.5 µM,[6],30.9%
same,activity at 2.5 µM,[6],12.5%
same,Emax,[6],3.93%
same,EC50,"[7]; QSP model fit of 6-day MLTA data, read-out: EC50MonoP",117 nM
same,activity at 0.0002 µM,[7],105%
same,activity at 0.001 µM,[7],94.3%
same,activity at 0.005 µM,[7],87.2%
same,activity at 0.025 µM,[7],74.8%
same,activity at 0.1 µM,[7],49%
same,activity at 0.5 µM,[7],30.2%
same,activity at 2.5 µM,[7],11.3%
same,Emax,[7],140%
same,viability at 0.0002 µM,[8],97.8%
same,viability at 0.001 µM,[8],96.4%
same,viability at 0.005 µM,[8],91.2%
same,viability at 0.025 µM,[8],84%
same,viability at 0.1 µM,[8],60.1%
same,viability at 0.5 µM,[8],33.9%
same,viability at 2.5 µM,[8],12.9%
